US10059655B2, “Lipids and lipid compositions for the delivery of active agents” (priority 2013, dated 2018)

Columns and labels:
Format in all cases: physicochemical
[1] = Particle size of the lipid nanoparticle (Z-average, dynamic light scattering, Malvern Zetasizer); conditions: for Size 1st IM / Size 2nd IM: RSV-F replicon RNA LNP, DLS; for Size 1st IM: 1st immunization; for Size 2nd IM: 2nd immunization
Excerpt: The lipid nanoparticles have a size of about 1 to about 2,500 nm, about 10 to about 1,500 nm, about 20 to about 1,000 nm, in a sub-embodiment about 50 to about 600 nm, in a sub-embodiment about 50 to about 400 nm, in a sub-embodiment about 50 to about 250 nm, and in a sub-embodiment about 50 to about 150 nm. Unless indicated otherwise, all sizes referred to herein are the average sizes (diameters) of the fully formed nanoparticle, as measured by dynamic light scattering on a Malvern Zetasizer. The nanoparticle sample is diluted in phosphate buffered saline (PBS) so that the count rate is approximately 200-400 kcts. The data is presented as a weighted average of the intensity measure.
Unless indicated otherwise, all particle size measurements referred to in Table 3 are the Z-average particle size of the fully formed nanoparticle, as measured by dynamic light scattering on a Malvern Zetasizer. The nanoparticle sample was diluted in phosphate buffered saline (PBS) so that the count rate is approximately 200-400 kcts.
% entrapment (% E), Concentration of RNA (Conc), particle size measured by DLS, and polydispersity reported by DLS of LNPs prepared with different cationic lipids

[2] = Measurement of mRNA encapsulation in lipid nanoparticles (Quant-iT Ribogreen); conditions: for % encapsulation mRNA Leptin: Leptin mRNA in LNP
Outline: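 LNPs were formed by T-junction mixing of ethanolic lipids (cationic lipid:DSPC:cholesterol:PEG lipid 40:10:38:2) with mRNA in citrate pH 5.8–6.0 at N:P 4:1, then dialysed against PBS overnight at 4 °C. RiboGreen fluorescence (ex 480/em 520 nm) was read on samples diluted 400–2,000-fold in TE with or without 0.75% Triton X-100 and quantified against standard curves. Encapsulation % = (Triton − buffer concentration)/Triton concentration.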

[3] = Measurement of plasmid DNA encapsulation in lipid nanoparticles (Quant-iT Ribogreen)
Procedure: All equipment and disposable supplies are certified free of RNase activity by the manufacturer or rendered RNase free by use of the RNaseZap reagent (LifeTechnologies). Plasmid is encapsulated at a cationic lipid amine to DNA phosphate (N:P) molar ratio of 4:1. Lipids (cationic lipid, DSPC, cholesterol and lipidated PEG) are dissolved in ethanol. The molar ratios are 40:10:38:2, respectively. The mixture is sonicated briefly, then gently agitated for 5 minutes and then maintained at 37° C. until use. Plasmid is exchanged into citrate buffer pH 6.0 by use of Amicon Ultra-15 centrifugal concentrators, and the final concentration is adjusted to 0.053 mg/ml and held at 37° C. until use. An equal volume of lipids in ethanol, plasmid in citrate buffer, and citrate buffer alone are drawn into disposable syringes. Tubing leading from syringes containing lipids and DNA are attached to the T junction, and tubing leading from the syringe containing citrate buffer alone is paired with the tubing exiting the T-junction over a collection vessel containing a stir bar on an active stir plate. Syringes are placed in a syringe pump set to expel contents at a flow rate of 1 ml per minute. The pump is activated, and the collected DNA in lipid nanoparticles is transferred to SnakeSkin dialysis tubing (10,000 MWCO, Thermo Scientific). Material is dialyzed against RNAse- and pyrogen-free 1× phosphate buffered saline overnight at 4° C.
Percent encapsulation of plasmid DNA in lipid nanoparticles is determined using the Quant-iT Ribogreen RNA Assay kit (Life Technologies). The LNP-DNA suspension is assayed in buffer (DNA outside the particle), and buffer plus Triton X-100 detergent (total DNA). The difference calculated is the DNA inside the particle. Prepare a 1000 ng/mL stock using unpackaged plasmid and use this to generate a standard curve (0 ng/ml, 15.63-1000 ng/ml) in TE and TE+0.75% Triton X-100. Prepare LNP-plasmid samples in TE buffer and TE buffer+0.75% Triton X-100 with appropriate dilution so that reading is in the range of standard curve (25 fold). In a 384-well plate (Costar non-treated #3573) add 0.04 ml of standard (in duplicate) or sample (in triplicate) per well. Dilute Ribogreen reagent 240-fold in TE buffer and add 0.06 ml per well. Mix contents of wells and measure fluorescence (excitation=480 nm, emission=520 nm). Subtract background values (no DNA) from standard and test sample values and determine the concentrations of DNA in the samples using the standard curves. Determine the percent encapsulation of the sample by dividing the difference in concentrations between sample+triton and sample in buffer alone by the sample+triton concentration.

Compound | Size ([1]; FLuc mRNA) | Size ([1]; FVII siRNA) | Size ([1]; Gluc mRNA) | Size 1st IM [1] | Size 2nd IM [1] | Size ([1]; hFIX mRNA) | Size ([1]; hLep plasmid) | Size ([1]; hLeptin mRNA) | Size ([1]; mEPO mRNA) | Size ([1]; pDNA) | % Encap. ([2]; FLuc mRNA) | % Encap. ([2]; Gluc mRNA) | % encapsulation mRNA Leptin [2] | % Encap. ([2]; hFIX mRNA) | % Encap. ([2]; hLeptin mRNA) | % Encap. ([2]; mEPO mRNA) | % Encap. ([3]; hLep plasmid) | % Encap. ([3]; pDNA)
CCCCC/C=C\C/C=C\CCCCCCCC(=O)OCC(COC(=O)CCCCCCC/C=C\C/C=C\CCCCC)COC(=O)C1(C)CCN(C)C1 (stereo not drawn) [Example 1, (9Z,9′Z,12Z,12′Z)-2-(((1,3-dimethylpyrrolidine-3-carbonyl)oxy)methyl)propane-1,3-diyl bis(octadeca-9,12-dienoate)] | 119.0 nm | 102.3 nm | 95.7 nm | 139.1 nm | 133.5 nm | 126.9 nm | 105.1 nm | 100.0 nm | 107.2 nm | 100.7 nm | 86.8% | 92.3% | 96.7% | 89.5% | 96.7% | 94.7% | 93.0% | 94.7%
CCCCC/C=C\C/C=C\CCCCCCCC(=O)OCC(COC(=O)CCC(OCCCCCCCC)OCCCCCCCC)COC(=O)OCCCN(CC)CC (stereo not drawn) [Example 13, (9Z,12Z)-3-((4,4-bis(octyloxy)butanoyl)oxy)-2-((((3-(diethylamino)propoxy)carbonyl)oxy)methyl)propyl octadeca-9,12-dienoate] | 121.9 nm | 101.5 nm | 90.8 nm | – | – | 122.4 nm | 121.5 nm | 127.6 nm | 113.7 nm | 95.12 nm | 98.3% | 97.2% | 90.7% | 96.4% | 95.4% | 98.5% | 95.9% | 98.2%
CCCCC/C=C\C/C=C\CCCCCCCC(=O)OCC(COC(=O)CCC(OCCCCCCCC)OCCCCCCCC)COC(=O)OCC1CCCN(CC)C1 (stereo not drawn) [Example 15, (9Z,12Z)-3-((4,4-bis(octyloxy)butanoyl)oxy)-2-(((((1-ethylpiperidin-3-yl)methoxy)carbonyl)oxy)methyl)propyl octadeca-9,12-dienoate] | 100.7 nm | – | 84.7 nm | 144.7 nm | 139.4 nm | 96.8 nm | 94.5 nm | 119.8 nm | 90.1 nm | 86.9 nm | 98.1% | 98.1% | 97.3% | 98.4% | 97.3% | 98.3% | 93.6% | 93.2%
